Read-outs that look alike come from different tables or passages of the source.
Tests used:
[1] = no Na CPP
Method: Comparative in vitro experiments were carried out using a Seeded Crystal Growth Inhibition Assay. This assay involved the treatment of synthetic hydroxyapatite with the anti-tartar agent to be tested. The hydroxyapatite, treated with the anti-tartar agent was incubated at 37°C in a calcifying solution made up of calcium and phosphate at 1.5 mM and 4.5 mM respectively, pH 7.4. The samples were filtered to remove any calcium phosphate crystals and the free calcium in the filtrate was measured using Atomic Absorption Spectroscopy. The percent inhibition was calculated as follows: [formula]
The % inhibition is a measure of the degree of inhibition of calcium phosphate precipitation by the anti-tartar agent. The anti-tartar agents tested were: 1) tetrasodium pyrophosphate, Na₄P₂O₇ and 2) combinations of Na₄P₂O₇ and sodium caseinphosphopeptide, Na CPP, prepared as described above, which is a mixture rich in phosphopeptides of SEQ ID NO:1 and SEQ ID NO:2.
Experiments were carried out using a Seeded Crystal Growth Inhibition Assay described in Example 1. % inhibition was measured for NaCPP/Zinc sulphate mixtures.

[2] = system: Streptococcus sobrinus 6715-14; settings: 1.5% pyrophosphate anion; versus deionized water control
Method: A Microbial Mineralization Assay was carried out. Standard glass rods (3mm x 50mm) were attached to a circular piece of rubber and attached to a vial cap. The surface of the rods was etched. The rods were placed in a growth medium containing sucrose and Streptococcus sobrinus 6715-14. The microbe was grown on the rods for 24 hours at 37°C. The rods were then placed into a fresh growth medium for another 24 hours at 37°C. The rods were then taken out and treated with the anti-tartar agent to be tested. Treatment with only deionized water was used as control. The rods were then placed in a calcifying solution made up of a calcium and phosphate at levels of 1.5 mM and 5.0 mM respectively, at pH 7.4, supplemented with human saliva (about 25%). Six hours later, the treatment with the anti-tartar agent was repeated, and glass rods were placed in a calcifying solution. The procedure was continued for the next three days.
The rods were then removed from the calcifying solution, rinsed with water and placed in 0.6 N HCl solution. The solution containing the rods was heated at 60°C for 2 hours to dissolve calcified salts. The resulting acidic solution was filtered over 0.8 µm nylon membrane. The level of mineral formation was assessed via calcium and phosphorus analysis. The results were calculated by comparing the % reduction of mineral formation to that of the control.

In the case of `O=P([O-])([O-])OP(=O)([O-])[O-].[Na+].[Na+].[Na+].[Na+]` [Na4 P2 O7, tetrasodium pyrophosphate], the “% Inhibition” value ([1]; Na4 P2 O7 0.1 mM) is reported as 14%, the “% Inhibition” value ([1]; Na4 P2 O7 0.15 mM) is reported as 24% and the “% Inhibition” value ([1]; Na4 P2 O7 0.2 mM) is reported as 54%.

In the case of `O=P(O)(O)OP(=O)(O)O` [pyrophosphate anion], the “% reduction of mineral formation” value [2] is reported as 32%.
